Assay results from patent US8575376B2, “Steroide anionic compounds, method of their production, usage and pharmaceutical preparation involving them” (Ustav Organicke Chemie A Biochemie Akademie Ved Ceske …, priority 2009, dated 2013).

Key:
[1] = system: rats; test: Footshock-induced ultrasonic vocalization (anxiety); assay type: in vivo, rat
Experimental: Effect of compound from example 9 application at doses of 0.001 mg/kg, 0.01 mg/kg and 10 mg/kg on ultrasonic vocalization after exposure to stressful situation (foot-shock) as a measure of anxiety. Under conditions of stress and pain, rats are known to emit ultrasonic distress calls at a frequency of about 22 kHz. On the first day, rats were placed into the shock chamber individually and after 30 s of habituation, they received 6 inescapable electric foot-shocks (1 shock/1 minute, 1 mA) of 10 seconds duration. The procedure was repeated 24 hours later, but this time, the animals received only one 10-second shock. Afterwards, the rats were injected i.p. with vehicle (b-cyclodextrine) or the compound from example 9 at doses of 0.001, 0.01, and 10 mg/kg) 30 min prior to testing. During the test session, animals were placed into the shock chamber for 10 minutes and their ultrasonic vocalization was recorded. […] Each animal was recorded separately with a Mini-3 Bat Detector (Ultra Sound Advice, London, UK). Ultrasonic vocalizations at 22-kHz consisting of calls with a minimal duration of 300 ms were recorded and analyzed by UltraVox 2.0 program (Noldus, Wageningen, The Netherlands). The total number of vocalization events and their total duration were recorded.

[2] = system: rats; test: Forced swim test; assay type: in vivo, rat; conditions: 1 mg/kg i.p., 60 min prior, p<0.001
Experimental: Forced swim test is an experimental model of depression and excessive stress used in laboratory rodents. Rats were randomly assigned to two groups of seven animals each. Control group received an injection of cyclodextrine (i.p.) 60 min. prior to experiment, while experimental group was injected i.p. with the compound from example 9 in a dose of 1 mg/kg 60 minutes prior to the experiment. Rats were forced to swim by being individually placed into a bucket (30 cm diameter, 28 cm height) containing water (25° C.). Immobility (floating) in the water is interpreted as a state of despair when the animals realize that an escape is impossible. Immobility was defined as floating (as opposed to active swimming) with minimal effort required for keeping the head above water. All animals received a single 30-minute trial and their behaviour was monitored by an experimenter. The trial was divided into six 5-minute intervals and floating of at least 30 second duration within each interval was recorded by the experimenter.

[3] = system: rats; test: Spontaneous locomotor activity in the open-field test; assay type: in vivo, rat; conditions: 1 and 10 mg/kg s.c., 30 min before, 30 min session
Experimental: Animals were tracked with Ethovision Pro system (Noldus, Netherlands) and total path traveled during this session was evaluated. The compound from Example 9 was applied subcutaneously (dissolved in cyclodextrin) 30 min prior to behavioral observations at doses 1 mg/kg a 10 mg/kg; control animals were injected with saline.

[4] = system: Long-Evans rats; test: Learned helplessness model of affective disorders; assay type: in vivo, rat; conditions: 1 mg/kg i.p. after inescapable shocks, tested 24 h later, p<0.01 vs LH group
Experimental: Male Long-Evans rats weighing 350-450 g were used. Animals were housed in groups in an air-conditioned room with 12 h/12 h light/dark cycle with the lights on at 7 a.m. Water and food were available ad libitum. Animals were randomly assigned to 3 groups—control group (received no shocks), learned helplessness group (received shocks) and experimental group (received shocks and injection of compound from example 9). An experimental set-up was composed of two chambers separated by a sliding door. The transparent shock chamber (48×20×20 cm) with one entrance led to the dark chamber (25×15×15 cm) made of black plexiglass. The floor of the shock chamber consisted of metal rods. Shocks were delivered through the grid floor. A shock generator (Data acquisition MF624 multifunction I/O board for PCI, Humusoft Ltd., Czech Republic) was connected to and controlled by a computer. On the pre-treatment day rats were individually placed into the apparatus for 10-minute habituation period. The sliding door separating two chambers was removed allowing free movements between the compartments. Immediately after the habituation rats were confined to the shock chamber for 1 hour. Inescapable shocks (72 V) of 10 s duration were delivered at 50 s intervals. Afterwards animals were injected i.p. with compound from example 9 in dose of 1 mg/kg. […] The number of escapes was recorded. […]

[5] = system: rats; test: Histochemical analysis (FluoroJadeB) after bilateral NMDA-induced hippocampal lesion; assay type: in vivo, rat; conditions: 1 mg/kg i.p.
Experimental: Animals were divided into four groups consisting of two series. First group of animals received an application of NMDA (intrahipocampally, i.h.) and compound from Example 9 (1 mg/kg, i.p.). Second group received NMDA i.h. and cyclodextrine i.p., third group obtained saline i.h. and cyclodextrin i.p. Forth group was applied with sterile saline i.h. and compound from Example 9 at a dose 1 mg/kg, i.p. Six animals from each group was sacrificed and perfused at intervals of 1-4 days after experimental manipulation.
Animals were deeply anesthetized by isoflurane (3.5%, driven by air) and fixed in the stereotaxic apparatus. Small drills were made in the skull and subsequently microinjection of NMDA (1 μl, […] NMDA in saline; pH adjusted to 7.2 by calcium dihydrogenphosphate) into both hippocampi was pursued. Coordinates of application (AP=4, L=2.5, DV=4) were localized with stereotaxic atlas (Paxinos and Watson, 2005) and verified in histological controls. Rats were again placed in soft recovery boxes after surgery and carefully monitored after surgery.
Application of compound from Example 9 was done according to experimental scheme either 30 min prior to and after NMDA application (in first series of experiments) or 30 min after lesion in the second series. Animals were perfused on days 1-4 after lesion, their brains were fixed with paraformaldehyde and sacharose solution. The brains were subsequently frozen to −70° C., and thin brain slices were prepared on cryomicrotome, stained and analyzed under light microscope.

[6] = Neuropathic pain model; assay type: in vivo; conditions: no data shown
[7] = system: rats; test: Prepulse inhibition of the acoustic startle response (sensorimotor gating); assay type: in vivo, rat; conditions: 1 and 10 mg/kg s.c., compound alone

With `CC(=O)[C@H]1CC[C@H]2[C@@H]3CC[C@@H]4C[C@H](OC(=O)[C@@H](N)CCC(=O)O)CC[C@]4(C)[C@H]3CC[C@]12C` [Example 9, 20-Oxo-5β-pregnan-3α-yl L-glutamyl 1-ester] the “anxiolytic effect, ultrasonic vocalization” value ([1]; 0.001, 0.01 and 10 mg/kg i.p., 30 min prior to testing) was “slight dose-dependent anxiolytic effect”, the “total duration of ultrasonic vocalizations” value ([1]; 10 mg/kg i.p.) was “Significant difference” and the “time spent floating / time to immobility in forced swim test” value [2] was “spent significantly less time by floating, in comparison to controls”. The “total distance traveled in the open-field session (spontaneous locomotor activity)” value [3] was “did not significantly alter the spontaneous locomotor activity”, the “number of escapes (learned helplessness)” value [4] was “significantly increased number of escapes” and the “NMDA-induced damage in caudatoputamen and thalamic nuclei (histology)” value [5] was “Alleviation, but not elimination of damage”. For the same compound, the “NMDA-induced damage in neocortex (histology)” value [5] was “pronounced cessation of damage in the whole neocortex”, the “NMDA-induced damage to the hippocampus (histology)” value ([5]; dentate gyrus, Cornu ammonis fields, subiculum) was “significant decrease of NMDA-induced damage to the hippocampus” and the “action on the neuropathic pain model” value [6] was “Beneficial action”. For the same compound, the “prepulse inhibition of the startle response” value [7] was “none of the doses of the compound from Example 9 significantly altered this parameter”.
